These results are taken from article PMC8495142 (Drug Design, Development and Therapy, 2021).

Data set [1] relates to CYP2D6. The following applies: in vitro; cited from earlier work.
The subject of data set [2] is CYP3A. The following applies: in vitro; cited from earlier work.
The format of data set [3] is in vitro ADME, beagle dog. The following applies: all four storage conditions, 2.5, 50 and 150 ng/mL.

SMILES strings stand for the structures.

On to `CC[C@@H]1CN(C(=O)NCC(F)(F)F)C[C@@H]1c1cnc2cnc3[nH]ccc3n12` [Upadacitinib], for which the “Metabolism by CYP2D6” value in data set [1] is listed as “a small part by CYP2D6”. Further, the “Metabolism by CYP3A” value in data set [2] is listed as “mainly metabolized by CYP3A”. For the same compound, the “Stability in beagle dog plasma (in words)” value in data set [3] was “stable”.
